Results on twelve compounds are retold here after ChEMBL document CHEMBL2046380, “Synthesis and structure-activity relationship of disubstituted benzamides as a novel class of antimalarial agents” (Bioorg Med Chem Lett, 2012).

Experiment [1] has as its system Plasmodium falciparum. Briefly: Antimalarial activity against […] incubated for 72 hrs by DNA staining based MARK1 growth inhibition assay. The format is functional, organism-based.
Experiment [2] concerns Plasmodium falciparum. Briefly: Antimalarial activity against chloroquine-sensitive Plasmodium falciparum 3D7 incubated for 72 hrs by DNA staining based MAR3D7 growth inhibition assay. The format is functional, organism-based. The settings on record: 3D7, 72 h.
Experiment [3] relates to HepG2. Kind of experiment: Cytotoxicity against human HepG2 cells after 72 hrs by […] CellTiterGlo reagent assay. Type of experiment: cell-based. The settings on record: HepG2, 72 h. A general note: Alamar Blue is a resazurin reagent that responds to reducing activity.
Experiment [4] relates to Raji. Briefly: Cytotoxicity against human Raji cells after 72 hrs by […] CellTiterGlo reagent assay. Type of experiment: cell-based.
The test system of experiment [5] is BJ. Briefly: Cytotoxicity against human BJ cells after 72 hrs by […] CellTiterGlo reagent assay. The format is cell-based.
Experiment [6] has as its system HEK293. Briefly: Cytotoxicity against human HEK293 cells after 72 hrs by […] CellTiterGlo reagent assay. The format is cell-based. The settings on record: HEK293, 72 h.

As to `CCOC(=O)CCCCCOc1cccc(CN(C(=O)c2ccc(-c3ccsc3)cc2)C(C)C)c1`, the EC50 – broadly, the concentration giving half of the maximal effect – in experiment [1] is over 15 µM; in experiment [2], over 15 µM; in experiment [3], over 26 µM; in experiment [4], over 26 µM; in experiment [5] it was over 26 µM; in experiment [6], over 26 µM.

As for `CCOC(=O)CCCCCOc1cccc(CN(C(=O)c2ccc(-c3cccc(OC)c3)cc2)C(C)C)c1`, the half-maximal effective concentration (EC50) is over 11.7 µM in experiment [1]; over 11.7 µM in experiment [2]; over 21.1 µM in experiment [3]; over 21 µM in experiment [4]; over 21.1 µM in experiment [5]; over 21.1 µM in experiment [6].

With `CCCNCc1cccc(OCCCCCC(=O)OCC)c1`, the EC50 was over 15 µM in experiment [1]; over 15 µM in experiment [2]; over 26 µM in experiment [3]; over 26 µM in experiment [4]; over 26 µM in experiment [5]; over 26 µM in experiment [6].

On to `CCOC(=O)CC(=O)NCC(OCC)(OCC)c1ccc2c(c1)OCO2`, for which the concentration for a half-maximal effect (EC50) in experiment [1] is over 7.51 µM; in experiment [2], over 7.51 µM; in experiment [3] it was over 13 µM; in experiment [4], over 13 µM; in experiment [5] it was over 13 µM; in experiment [6] it was over 13 µM.

As for `CCOC(=O)CCCCCOc1ccccc1CN(C(=O)c1ccc(-c2ccc3c(c2)OCO3)cc1)C(C)C`, the concentration for a half-maximal effect (EC50) in experiment [1] was over 15 µM; in experiment [2], over 15 µM; in experiment [3], over 26 µM; in experiment [4] it was over 26 µM; in experiment [5], over 26 µM; in experiment [6], over 26 µM.

Take `CCOC(=O)CCCCCOc1cccc(CN(C(=O)c2ccc(-c3cc(F)cc(OC)c3)cc2)C(C)C)c1`: the EC50 in experiment [1] is over 15 µM; in experiment [2], over 15 µM; in experiment [3], over 26 µM; in experiment [4], over 26 µM; in experiment [5], over 26 µM; in experiment [6], over 26 µM.

Regarding `CC(C)COc1cccc(-c2ccc(C(=O)N(Cc3cccc(OCCCCCC(=O)O)c3)C(C)C)cc2)c1`, the EC50 in experiment [1] was over 15 µM; in experiment [2], over 15 µM; in experiment [3] it was over 26 µM; in experiment [4], over 26 µM; in experiment [5], over 26 µM; in experiment [6], over 26 µM.

Regarding `COc1ccc(CCNC(=O)CCO[Si](C)(C)C(C)(C)C)cc1OC`, the 50% effective concentration (EC50) is over 7.51 µM in experiment [1]; over 2.58 µM in experiment [2]; 4.89 µM in experiment [3]; 6.9 µM in experiment [4]; over 13 µM in experiment [5]; over 13 µM in experiment [6].

Turning to `CCOC(=O)CCCCCOc1cccc(CN(C(=O)c2ccc(-c3cccc(Br)c3)cc2)C(C)C)c1`, the concentration for a half-maximal effect (EC50) in experiment [1] was over 15 µM; in experiment [2], over 15 µM; in experiment [3], over 26 µM; in experiment [4], over 26 µM; in experiment [5] it was over 26 µM; in experiment [6] it was over 26 µM.

Turning to `COc1ccc(-c2cc(C(=O)O)c3ccccc3n2)cc1OC`, the EC50 in experiment [1] was over 15 µM; in experiment [2] it was over 15 µM; in experiment [3], over 26 µM; in experiment [4], over 26 µM; in experiment [5] it was over 26 µM; in experiment [6], over 26 µM.

As to `CC(C)N(Cc1cccc(OCCCCCC(=O)O)c1)C(=O)c1ccc(-c2cccc(CC#N)c2)cc1`, the concentration giving a half-maximal response (EC50) was over 15 µM in experiment [1]; over 15 µM in experiment [2]; over 26 µM in experiment [3]; over 26 µM in experiment [4]; over 26 µM in experiment [5]; over 26 µM in experiment [6].

With `C=CCCC1=NCC(OC(C)=O)c2cc(OC)c(OC)cc21` (configuration not stated), the EC50 was over 7.51 µM in experiment [1]; over 7.51 µM in experiment [2]; over 13 µM in experiment [3]; over 13 µM in experiment [4]; over 13 µM in experiment [5]; over 13 µM in experiment [6].
